The values that follow come from ChEMBL document CHEMBL4842348 (J Med Chem, 2021).

SMILES strings stand for the structures. Values after ≈ are worked out from the molar mass of the structure shown.

Data set [1] is described as follows: Lipophilicity, logD of the compound at pH 7.3 by HPLC analysis. The settings on record: buffer. Format: physicochemical.
Data set [2] is described as follows: Solubility of the compound in pH 7 phosphate buffer by shake-flask method. It counts as physicochemical.

In the case of `COc1ccc([C@@H]2C[C@@H](O)[C@@H](O)C2)cc1-c1ccc(C(F)(F)F)cc1[C@@H]1CC[C@H]2[C@@H](c3cc(C(F)(F)F)cc(C(F)(F)F)c3)OC(=O)N12`, in data set [1], the logD amounted to 5.7.

On to `COc1ccc(-c2ccc(C(=O)O)cc2C)cc1-c1cnc(N(C)C)nc1CN1C(=O)O[C@H](c2cc(Cl)cc(Cl)c2)[C@@H]1C`, for which, in data set [1], the logD amounted to 4.6.

With `COc1cc(F)c(C(C)C)cc1-c1ccc(F)cc1[C@@H]1CC[C@H]2[C@@H](c3cc(C(F)(F)F)cc(C(F)(F)F)c3)OC(=O)N12`, the logD in data set [1] worked out at 7.

The compound `COc1ncc(-c2ccc(C(=O)O)cc2C)cc1-c1cc(C)c(C(F)(F)F)cc1[C@@H]1CC[C@H]2[C@@H](c3cc(C(F)(F)F)cc(C(F)(F)F)c3)OC(=O)N12` registered a logD in data set [1] of 5.8.

`COc1cc(F)c(C(C)C)cc1-c1ccc(C(F)(F)F)cc1[C@@H]1CC[C@H]2[C@@H](c3cc(F)cc(C(F)(F)F)c3)OC(=O)N12` came in with a log distribution coefficient (logD) in data set [1] of 6.3.

In the case of `COc1ccc(C2CNC(=O)OC2(C)C)cc1-c1ccc(C(F)(F)F)cc1[C@@H]1CC[C@H]2[C@@H](c3cc(C(F)(F)F)cc(C(F)(F)F)c3)OC(=O)N12` (stereo not given in full), the logD in data set [1] is 5.7.

For `COc1cc(F)c(C(C)C)cc1-c1ccc(C(F)(F)F)cc1[C@@H]1CC[C@H]2[C@@H](c3cc(Cl)cc(C(F)(F)F)c3)OC(=O)N12`, in data set [1], the logD is 6.5.

For the compound `COc1ccc(-c2c(C)cc(C(=O)O)cc2C)cc1-c1ncc(C(F)(F)F)cc1[C@@H]1CC[C@H]2[C@@H](c3cc(C(F)(F)F)cc(C(F)(F)F)c3)OC(=O)N12`, in data set [1], the logD was found to be 4.8.

In data set [1], `COc1ncc(-c2ccc(C(=O)O)cc2C)cc1-c1c(C)cc(C(F)(F)F)cc1[C@@H]1CC[C@H]2[C@@H](c3cc(C(F)(F)F)cc(C(F)(F)F)c3)OC(=O)N12` gave a logD of 5.7.

Compound `COc1ccc(-c2ccc(C(=O)O)cc2C)cc1-c1cnc(N(C)C)nc1CN1C(=O)O[C@H](c2ccnc(C(F)(F)F)c2)[C@@H]1C` displayed a logD in data set [1] of 3.2.

In data set [1], `COc1ccc(-c2ccc(C(=O)O)cc2C)cc1-c1cnc(N(C)C)nc1CN1C(=O)O[C@H](c2cc(Cl)cc(C(F)(F)F)c2)[C@@H]1C` had a log distribution coefficient (logD) of 4.6.

In the case of `COc1ccc(-c2ccc(C(=O)O)cc2C)cc1-c1cnc(C(F)(F)F)cc1[C@@H]1CC[C@H]2[C@@H](c3cc(C(F)(F)F)cc(C(F)(F)F)c3)OC(=O)N12`, the log distribution coefficient (logD) in data set [1] came to 4.8.

`COc1cc(F)c(C(C)C)cc1-c1ccc(C(F)(F)F)cc1[C@@H]1CC[C@H]2[C@@H](c3cc(Cl)cc(Cl)c3)OC(=O)N12` showed a pH-dependent lipophilicity (logD) in data set [1] of 6.1.

Consider `COc1cc(F)c(C(C)C)cc1-c1cnc(N(C)C)nc1[C@@H]1CC[C@H]2[C@@H](c3cc(C(F)(F)F)cc(C(F)(F)F)c3)OC(=O)N12`, for which the logD in data set [1] was found to be 7.

`CCc1ncc(-c2cc(-c3ccc(C(=O)O)cc3C)ccc2OC)c(CN2C(=O)O[C@H](c3cc(C(F)(F)F)cc(C(F)(F)F)c3)[C@@H]2C)n1` displayed a logD in data set [1] of 4.5.

The compound `COc1cc(F)c(C(C)C)cc1-c1ccc(C(F)(F)F)cc1[C@@H]1CC[C@H]2[C@@H](c3cc(C)cc(C(F)(F)F)c3)OC(=O)N12` gave a pH-dependent lipophilicity (logD) in data set [1] of 7.

On to `COc1ccc(-c2c(C)cc(C(=O)O)cc2C)cc1-c1ccc(C(F)(F)F)cc1[C@@H]1CC[C@H]2[C@@H](c3cc(C(F)(F)F)cc(C(F)(F)F)c3)OC(=O)N12`, for which the logD in data set [1] stood at 5.4.

For the compound `COc1ccc(-c2ccc(C(=O)O)cc2C)cc1-c1c(C)cc(C(F)(F)F)cc1[C@@H]1CC[C@H]2[C@@H](c3cc(C(F)(F)F)cc(C(F)(F)F)c3)OC(=O)N12`, the pH-dependent lipophilicity (logD) in data set [1] is 6.

In data set [2], `COc1ccc(-c2ccc(C(=O)O)cc2C)cc1-c1ccc(C(F)(F)F)nc1CN1C(=O)O[C@H](c2cc(C(F)(F)F)cc(C(F)(F)F)c2)[C@@H]1C` returned a solubility (thermodynamic) of 29 µM (≈ 20.7 µg/mL). Also, the logD in data set [1] came to 5.3.

`COc1cc(F)c(C(C)C)cc1-c1ccc(N(C)C)nc1[C@@H]1CC[C@H]2[C@@H](c3cc(C(F)(F)F)cc(C(F)(F)F)c3)OC(=O)N12` came in with a pH-dependent lipophilicity (logD) in data set [1] of 6.9.

For the compound `COc1ccc([C@H]2CC[C@H](C(=O)O)CC2)cc1-c1ccc(C(F)(F)F)cc1[C@@H]1CC[C@H]2[C@@H](c3cc(C(F)(F)F)cc(C(F)(F)F)c3)OC(=O)N12`, in data set [1], the logD came out at 5.6.

In data set [1], `COc1ccc(-c2ccc(C(=O)O)cc2C)cc1-c1cnc(N(C)C)cc1[C@@H]1CC[C@H]2[C@@H](c3cc(C(F)(F)F)cc(C(F)(F)F)c3)OC(=O)N12` returned a log distribution coefficient (logD) of 4.6.

For `COc1ccc(-c2ccc(C(=O)O)cc2C)cc1-c1cnc(N(C)C)nc1CN1C(=O)O[C@H](c2cc(F)cc(F)c2)[C@@H]1C`, in data set [1], the pH-dependent lipophilicity (logD) came to 3.8.

Turning to `COc1ccc(-c2ccc(C(=O)O)cc2C)cc1-c1ncc(C(F)(F)F)cc1[C@@H]1CC[C@H]2[C@@H](c3cc(C(F)(F)F)cc(C(F)(F)F)c3)OC(=O)N12`, in data set [1], the pH-dependent lipophilicity (logD) amounted to 4.6.

Take `COc1cc(F)c(-c2ccc(C(=O)O)cc2C)cc1-c1ccc(F)cc1[C@@H]1CC[C@H]2[C@@H](c3cc(C(F)(F)F)cc(C(F)(F)F)c3)OC(=O)N12`: in data set [1], the logD was found to be 5.1.

As for `COc1cc(F)c(C(C)C)cc1-c1ccc(C(F)(F)F)cc1[C@@H]1CC[C@H]2[C@@H](c3cc(C(F)(F)F)cc(C(F)(F)F)c3)OC(=O)N12`, in data set [1], the logD worked out at 7.1.

In data set [1], `COc1ncc(-c2ccc(C(=O)O)cc2C)cc1-c1cnc(C(F)(F)F)cc1CN1C(=O)O[C@H](c2cc(C(F)(F)F)cc(C(F)(F)F)c2)[C@@H]1C` yielded a logD of 4.5.

Regarding `COc1cc(F)c(-c2ccc(-c3nnc(N)o3)cc2C)cc1-c1ccc(C(F)(F)F)cc1[C@@H]1CC[C@H]2[C@@H](c3cc(C)cc(C(F)(F)F)c3)OC(=O)N12`, the logD in data set [1] was 6.6.

In data set [1], `COc1cc(F)c(-c2ccc(C(=O)O)cc2C)cc1-c1cc(C)c(C(F)(F)F)cc1[C@@H]1CC[C@H]2[C@@H](c3cc(C(F)(F)F)cc(C(F)(F)F)c3)OC(=O)N12` came in with a logD of 6.

Regarding `COc1ccc(-c2ccc(C(=O)O)cc2C)cc1-c1cnc(N(C)C)nc1CN1C(=O)O[C@H](c2ccc(OC(F)(F)F)cc2)[C@@H]1C`, the logD in data set [1] is 4.3.

Take `COc1cc(F)c(C(C)C)cc1-c1cnc(N(C)C)cc1[C@@H]1CC[C@H]2[C@@H](c3cc(C(F)(F)F)cc(C(F)(F)F)c3)OC(=O)N12`: the log distribution coefficient (logD) in data set [1] is 7.

In the case of `COc1ccc(C(C)CC(=O)O)cc1-c1ccc(C(F)(F)F)cc1[C@@H]1CC[C@H]2[C@@H](c3cc(C(F)(F)F)cc(C(F)(F)F)c3)OC(=O)N12` (stereo not given in full), the logD in data set [1] came out at 5.

Regarding `COc1ccc(-c2ccc(C(=O)O)cc2C)cc1-c1cnc(N(C)C)nc1CN1C(=O)O[C@H](c2cccc(C(F)(F)F)c2)[C@@H]1C`, the logD in data set [1] was 4.1.

For the compound `COc1ccc(-c2ccc(C(=O)O)cc2C)cc1-c1ccc(N(C)C)nc1[C@@H]1CC[C@H]2[C@@H](c3cc(C(F)(F)F)cc(C(F)(F)F)c3)OC(=O)N12`, the pH-dependent lipophilicity (logD) in data set [1] worked out at 5.8.

Compound `COc1ccc(-c2ccc(C(=O)O)cc2C)cc1-c1cnc(N2CCOCC2)nc1CN1C(=O)O[C@H](c2cc(C(F)(F)F)cc(C(F)(F)F)c2)[C@@H]1C` had a logD in data set [1] of 4.8.

In data set [1], `COc1ccc(-c2ccc(C(=O)O)cc2C)cc1-c1cnc(C(F)(F)F)cc1CN1C(=O)O[C@H](c2cc(C(F)(F)F)cc(C(F)(F)F)c2)[C@@H]1C` came in with a logD of 4.7.

Take `COc1cc(F)c(C(C)C)cc1-c1ccc(C(F)(F)F)cc1[C@@H]1CC[C@H]2[C@@H](c3cccc(C(F)(F)F)c3)OC(=O)N12`: the pH-dependent lipophilicity (logD) in data set [1] stood at 6.1.

`COc1ccc(-c2ccc(C(=O)O)cc2C)cc1-c1cnc(N2CCCC2)nc1CN1C(=O)O[C@H](c2cc(C(F)(F)F)cc(C(F)(F)F)c2)[C@@H]1C` yielded a logD in data set [1] of 5.2.

Turning to `COc1ncc(-c2ccc(C(=O)O)cc2C)cc1-c1ccc(C(F)(F)F)cc1[C@@H]1CC[C@H]2[C@@H](c3cc(F)cc(C(F)(F)F)c3)OC(=O)N12`, in data set [1], the logD was found to be 5.

As to `COc1cc(F)c(-c2ccc(C(=O)O)cc2C)cc1-c1ccc(C(F)(F)F)cc1[C@@H]1CC[C@H]2[C@@H](c3cc(F)cc(C(F)(F)F)c3)OC(=O)N12`, the log distribution coefficient (logD) in data set [1] came out at 5.1.

On to `COc1ccc(CCC(=O)O)cc1-c1ccc(C(F)(F)F)cc1[C@@H]1CC[C@H]2[C@@H](c3cc(C(F)(F)F)cc(C(F)(F)F)c3)OC(=O)N12`, for which the log distribution coefficient (logD) in data set [1] worked out at 4.7.

`COc1cc(F)c(-c2ccc(C(=O)O)cc2C)cc1-c1cnc(C2CC2)cc1[C@@H]1CC[C@H]2[C@@H](c3cc(C(F)(F)F)cc(C(F)(F)F)c3)OC(=O)N12`: in data set [1], the logD is 4.8.

With `COc1ccc(-c2ccc(C(=O)O)cc2C)cc1-c1cnc(N(C)C)nc1CN1C(=O)O[C@H](c2cccc(OC(F)(F)F)c2)[C@@H]1C`, in data set [1], the logD came out at 4.3.

Turning to `COc1ncc(-c2ccc(C(=O)O)cc2C)cc1-c1cnc(C(F)(F)F)nc1CN1C(=O)O[C@H](c2cc(C(F)(F)F)cc(C(F)(F)F)c2)[C@@H]1C`, in data set [1], the log distribution coefficient (logD) was found to be 4.9.

In the case of `COc1ncc(-c2ccc(C(=O)O)cc2C)cc1-c1ccc(C(F)(F)F)cc1[C@@H]1CC[C@H]2[C@@H](c3cccc(C(F)(F)F)c3)OC(=O)N12`, in data set [1], the logD is 4.7.

Take `COc1ccc(-c2ccc(C(=O)O)cc2C)cc1-c1cnc(N(C)C)nc1CN1C(=O)O[C@H](c2cccc(Cl)c2)[C@@H]1C`: the pH-dependent lipophilicity (logD) in data set [1] came to 4.

Consider `COc1ncc(-c2c(C)cc(C(=O)O)cc2C)cc1-c1ccc(C(F)(F)F)nc1[C@@H]1CC[C@H]2[C@@H](c3cc(C(F)(F)F)cc(C(F)(F)F)c3)OC(=O)N12`, for which the logD in data set [1] came to 5.8.

In data set [1], `COc1ncc(-c2ccc(C(=O)O)cc2C)cc1-c1ncc(C(F)(F)F)cc1[C@@H]1CC[C@H]2[C@@H](c3cc(C(F)(F)F)cc(C(F)(F)F)c3)OC(=O)N12` had a logD of 4.5.

Compound `COc1ncc(-c2ccc(C(=O)O)cc2C)cc1-c1cnc(C(F)(F)F)cc1[C@@H]1CC[C@H]2[C@@H](c3cc(C(F)(F)F)cc(C(F)(F)F)c3)OC(=O)N12` returned a logD in data set [1] of 4.6. The logD values of the last two compounds are within 0.2 log units of each other.

As for `COc1ccc([C@H]2CCC(=O)N[C@@H]2C)cc1-c1ccc(C(F)(F)F)cc1[C@@H]1CC[C@H]2[C@@H](c3cc(C(F)(F)F)cc(C(F)(F)F)c3)OC(=O)N12`, the logD in data set [1] amounted to 5.9.

Take `COc1ncc(-c2ccc(C(=O)O)cc2C)cc1-c1ccc(C(F)(F)F)cc1CN1C(=O)O[C@H](c2cc(C(F)(F)F)cc(C(F)(F)F)c2)[C@@H]1C`: the pH-dependent lipophilicity (logD) in data set [1] was 5.4.

In data set [1], `COc1ccc([C@H]2C[C@H](C(=O)O)C2)cc1-c1ccc(C(F)(F)F)cc1[C@@H]1CC[C@H]2[C@@H](c3cc(C(F)(F)F)cc(C(F)(F)F)c3)OC(=O)N12` displayed a logD of 5.1.

`COc1ccc(-c2ccc(C(=O)O)cc2C)cc1-c1cnc(N(C)C)nc1CN1C(=O)O[C@H](c2cccc(C(F)(F)F)n2)[C@@H]1C` displayed a pH-dependent lipophilicity (logD) in data set [1] of 3.8.

In the case of `COc1ccc(-c2ccc(C(=O)O)cc2C)cc1-c1cnc(N(C)C)nc1CN1C(=O)O[C@H](c2cncc(C(F)(F)F)c2)[C@@H]1C`, the log distribution coefficient (logD) in data set [1] came out at 3.3.
